Reference: paper PMC9643456, “Matching amino acids membrane preference profile to improve activity of antimicrobial peptides” (Communications Biology, 2022)
≈ marks a conversion by molar mass, not a printed value. Square brackets hold non-standard residues; d marks the D form. Peptide text beside a SMILES is read from it. Trp(2,5,7-tBu3) = CC(C)(C)c1cc(C(C)(C)C)c2[nH]c(C(C)(C)C)c(C[C@H](N)C(=O)O)c2c1; Trp(5-OH) = N[C@@H](Cc1c[nH]c2ccc(O)cc12)C(=O)O

Assays:
Assay in all cases: microbe, parasite or virus in culture
[1] = system: MDR S. aureus; conditions: CLSI broth microdilution; CAMHB with 50 mg/L Ca2+, 10 mg/L Mg2+; 5 × 10^5 CFU/ml; 18 h 37 °C; triplicate; strain KCCM 40510
Description: (§1) MDR Pseudomonas aeruginosa (CCARM 2180) was purchased from the Culture Collection of Antimicrobial Resistance Microbes (Seoul, Republic of Korea). MDR Acinetobacter baumannii (ATCC BAA-1605) and MDR Enterococcus faecalis (ATCC 51575) were purchased from the American Type Culture Collection (Manassas, VA, USA). MDR Staphylococcus aureus (KCCM 40510) was purchased from the Korean Culture Center of Microorganisms (Seoul, Republic of Korea). S. aureus (KCTC 1621) was purchased from the Korean Collection for Type Cultures. A. baumannii (KCCM 40203) was purchased from the Korean Culture Center of Microorganisms (Seoul, Republic of Korea).
(§2) To assess antimicrobial activity, the MIC50 and MIC90 were measured using broth microdilution following CLSI guidelines. […] Each experiment was performed in triplicate. Meropenem (Sigma, Darmstadt, Germany) and colistin were used as control antibiotics. Cation-adjusted Mueller–Hinton broth (CAMHB) (Becton, Dickinson and Company, Franklin Lakes, USA) with supplied calcium (50 mg/L) and magnesium (10 mg/L) was used for the CLSI-test condition. Bacteria in midlog phase and peptides were separately diluted in CAMHB. The bacteria and peptide solutions were then mixed in 96-well polyethylene plates (SPL, Gyeonggi-do, Korea) and incubated for 18 h at 37 °C. The final concentration for bacteria was 5 × 10^5 CFU/ml. […] The MIC was defined to be the lowest concentration of peptide without visible turbidity by comparing with control antibiotics with the unaided eye. […] Each experiment was performed in triplicate. MICs in albumin and acetic acid solutions were measured using the same protocol but with 0.2% bovine serum albumin (Bovogen, Keilor, Australia), 0.01% acetic acid (Merck, New Jersey, USA), and CAMHB with both calcium and magnesium. In addition, MICs used in the antibiotic resistance acquisition test, the outer–inner membrane permeation test, and the transmembrane potential test and for FE-SEM were individually determined. The final bacterial concentrations used were as follows: for resistance acquisition, optical density (OD) 0.01; for outer–inner membrane permeability assays (LB), OD 0.1; for the transmembrane potential test, 1 × 10^8 CFU/ml (OD 0.171); […]. Inhibitory activity unidentifiable by direct observation was determined by counting the CFUs. Each experiment was performed at least twice.

[2] = system: MDR E. faecalis; conditions: CLSI broth microdilution; CAMHB with 50 mg/L Ca2+, 10 mg/L Mg2+; 5 × 10^5 CFU/ml; 18 h 37 °C; triplicate; strain ATCC 51575
Description: as §1, §2

[3] = system: MDR P. aeruginosa; conditions: CLSI broth microdilution; CAMHB with 50 mg/L Ca2+, 10 mg/L Mg2+; 5 × 10^5 CFU/ml; 18 h 37 °C; no visible turbidity; triplicate; strain CCARM 2180
Description: as §1, §2

[4] = system: MDR A. baumannii; conditions: CLSI broth microdilution; CAMHB with 50 mg/L Ca2+, 10 mg/L Mg2+; 5 × 10^5 CFU/ml; 18 h 37 °C; triplicate; strain ATCC BAA-1605
Description: as §1, §2

Structure (SMILES)	Minimum inhibitory concentrations, MDR S. aureus [1]	Minimum inhibitory concentrations, MDR E. faecalis [2]	Minimum inhibitory concentrations, MDR P. aeruginosa [3]	Minimum inhibitory concentrations, MDR A. baumannii [4]
CC[C@@H](C)[C@@H](NC(=O)[C@@H](Cc1c[nH]c2ccccc12)NC(=O)[C@@H](Cc1ccccc1)NC(=O)[C@@H](CC(C)C)NC(=O)[C@H](N)Cc1c[nH]c2ccccc12)C(=O)NCC(=O)N[C@H](CC(C)C)C(=O)N[C@H](CCCNC(=N)N)C(=O)N[C@H](CCCCN)C(=O)N[C@H](CCCCN)C(=O)N[C@H](CCCNC(=N)N)C(N)=O [WCopWF] (H-[dW][dL][dF][dW][dI]G[dL][dR][dK][dK][dR]-NH2)	2.5 µM (≈ 3.75 µg/mL)	2.5 µM (≈ 3.75 µg/mL)	10 µM (≈ 15 µg/mL)	1.25 µM (≈ 1.88 µg/mL)
CC[C@@H](C)[C@@H](NC(=O)[C@@H](Cc1c[nH]c2ccccc12)NC(=O)[C@@H](CCCCN)NC(=O)[C@@H](CC(C)C)NC(=O)[C@H](N)Cc1c[nH]c2ccccc12)C(=O)NCC(=O)N[C@H](CC(C)C)C(=O)N[C@H](CCCNC(=N)N)C(=O)N[C@H](CCCCN)C(=O)N[C@H](CCCCN)C(=O)N[C@H](CCCNC(=N)N)C(N)=O [WCopWK] (H-[dW][dL][dK][dW][dI]G[dL][dR][dK][dK][dR]-NH2)	>20 µM	>20 µM	>20 µM	>20 µM
CC[C@@H](C)[C@@H](NC(=O)[C@@H](Cc1c[nH]c2ccccc12)NC(=O)[C@H](NC(=O)[C@@H](CC(C)C)NC(=O)[C@H](N)Cc1c[nH]c2ccccc12)C(C)C)C(=O)NCC(=O)N[C@H](CC(C)C)C(=O)N[C@H](CCCNC(=N)N)C(=O)N[C@H](CCCCN)C(=O)N[C@H](CCCCN)C(=O)N[C@H](CCCNC(=N)N)C(N)=O [WCopWV] (H-[dW][dL][dV][dW][dI]G[dL][dR][dK][dK][dR]-NH2)	2.5 µM (≈ 3.63 µg/mL)	2.5 µM (≈ 3.63 µg/mL)	10 µM (≈ 14.5 µg/mL)	1.25 µM (≈ 1.82 µg/mL)
CC[C@@H](C)[C@@H](NC(=O)[C@@H](Cc1c[nH]c2ccccc12)NC(=O)[C@@H](Cc1ccc(O)cc1)NC(=O)[C@@H](CC(C)C)NC(=O)[C@H](N)Cc1c[nH]c2ccccc12)C(=O)NCC(=O)N[C@H](CC(C)C)C(=O)N[C@H](CCCNC(=N)N)C(=O)N[C@H](CCCCN)C(=O)N[C@H](CCCCN)C(=O)N[C@H](CCCNC(=N)N)C(N)=O [WCopWY] (H-[dW][dL][dY][dW][dI]G[dL][dR][dK][dK][dR]-NH2)	10 µM (≈ 15.2 µg/mL)	2.5 µM (≈ 3.79 µg/mL)	20 µM (≈ 30.4 µg/mL)	1.25 µM (≈ 1.9 µg/mL)
CC[C@H](C)[C@H](NC(=O)[C@H](Cc1c[nH]c2ccc(O)cc12)NC(=O)[C@H](CC(C)C)NC(=O)[C@H](CC(C)C)NC(=O)[C@@H](N)Cc1c[nH]c2ccc(O)cc12)C(=O)N[C@@H](C)C(=O)N[C@@H](CC(C)C)C(=O)N[C@@H](CCCNC(=N)N)C(=O)N[C@@H](CCCCN)C(=O)N[C@@H](CCCCN)C(N)=O [WhCopW] (H-[Trp(5-OH)]LL[Trp(5-OH)]IALRKK-NH2)	5 µM (≈ 6.79 µg/mL)	> 20 µM	> 20 µM	> 20 µM
CC[C@H](C)[C@H](NC(=O)[C@H](Cc1c[nH]c2ccccc12)NC(=O)[C@H](CC(C)C)NC(=O)[C@H](CC(C)C)NC(=O)[C@@H](N)Cc1c(C(C)(C)C)[nH]c2c(C(C)(C)C)cc(C(C)(C)C)cc12)C(=O)N[C@@H](C)C(=O)N[C@@H](CC(C)C)C(=O)N[C@@H](CCCNC(=N)N)C(=O)N[C@@H](CCCCN)C(=O)N[C@@H](CCCCN)C(N)=O [WtCopW] (H-[Trp(2,5,7-tBu3)]LLWIALRKK-NH2)	5 µM (≈ 7.47 µg/mL)	20 µM (≈ 29.9 µg/mL)	> 20 µM	10 µM (≈ 14.9 µg/mL)
